Experimental data from patent publication US8865698B2, “Method of treatment using substituted pyrazolo[1,5-a]pyrimidine compounds” (Array BioPharma Inc., priority 2008, dated 2014).

Target: histidine-tagged recombinant human TrkA, cytoplasmic domain (Homo sapiens (Human), UniProt P04629)
Assay: TrkA ELISA Assay
Assay type: biochemical
Conditions: 2.5 nM TrkA, 500 μM ATP, 25 minutes; read-out: TrkA Elisa Enzyme IC50
Protocol: An enzyme-linked immunosorbant assay (ELISA) was used to assess TrkA kinase activity in the presence of inhibitors. Immulon 4HBX 384-well microtiter plates (Thermo part #8755) were coated with a 0.025 mg/mL solution of poly (Glu, Ala, Tyr; 6:3:1; Sigma P3899). Various concentrations of test compound, 2.5 nM TrkA (Invitrogen Corp., histidine-tagged recombinant human TrkA, cytoplasmic domain), and 500 μM ATP were incubated for 25 minutes at ambient temperature in the coated plates while shaking. The assay buffer consisted of 25 mM MOPS pH 7.5, 0.005% (v/v) Triton X-100 and 5 mM MgCl2. The reaction mixture was removed from the plate by washing with PBS containing 0.1% (v/v) Tween 20. The phosphorylated reaction product was detected using 0.2 μg/mL of a phosphotyrosine specific monoclonal antibody (clone PY20) conjugated to horseradish peroxidase in conjunction with the TMB Peroxidase Substrate System (KPL). After the addition of 1M phosphoric acid, the chromogenic substrate color intensity was quantitated via absorbance at 450 nm. IC50 values were calculated using either a 4 or 5-parameter logistic curve fit.

Chain of histidine-tagged recombinant human TrkA, cytoplasmic domain (P04629 440-796): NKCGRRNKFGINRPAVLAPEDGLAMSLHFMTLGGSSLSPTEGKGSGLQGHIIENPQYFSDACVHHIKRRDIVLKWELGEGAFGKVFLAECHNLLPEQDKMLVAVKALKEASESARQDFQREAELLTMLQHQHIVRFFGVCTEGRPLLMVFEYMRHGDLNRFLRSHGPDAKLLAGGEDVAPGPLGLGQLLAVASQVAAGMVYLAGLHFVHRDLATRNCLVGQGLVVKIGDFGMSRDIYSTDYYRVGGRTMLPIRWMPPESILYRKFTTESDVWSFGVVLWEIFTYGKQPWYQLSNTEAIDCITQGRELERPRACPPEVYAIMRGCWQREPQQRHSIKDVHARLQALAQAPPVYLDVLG

SMILES | IC50
Cn1nc(C(=O)Nc2cnn3ccc(N4CCC[C@@H]4c4cccc(F)c4)nc23)ccc1=O [Example 6, (R)—N-(5-(2-(3-fluorophenyl)pyrrolidin-1-yl)pyrazolo[1,5-a]pyrimidin-3-yl)-1-methyl-6-oxo-1,6-dihydropyridazine-3-carboxamide] | 19.2 nM
O=C(Nc1cnn2ccc(N3CCC[C@@H]3c3cc(F)ccc3F)nc12)c1cc(Cl)ccn1 [Example 62, (R)-4-chloro-N-(5-(2-(2,5-difluorophenyl)pyrrolidin-1-yl)pyrazolo[1,5-a]pyrimidin-3-yl)picolinamide] | 4 nM
COc1ccc(NC(=O)Nc2cnn3ccc(N4CCC[C@@H]4c4cc(F)ccc4F)nc23)cc1 [Example 20, (R)-1-(5-(2-(2,5-difluorophenyl)pyrrolidin-1-yl)pyrazolo[1,5-a]pyrimidin-3-yl)-3-(4-methoxyphenyl)urea] | 4.8 nM
O=C(Nc1cnn2ccc(N3CC(F)(F)C[C@@H]3c3cccc(F)c3)nc12)N1CC(O)C1 [Example 7, (R)—N-(5-(4,4-difluoro-2-(3-fluorophenyl)pyrrolidin-1-yl)pyrazolo[1,5-a]pyrimidin-3-yl)-3-hydroxyazetidine-1-carboxamide] | 77.5 nM
CCS(=O)(=O)Nc1ccc(C(=O)Nc2cnn3ccc(N4CCC[C@@H]4c4cccc(F)c4)nc23)cc1 [Example 72, (R)-4-(ethylsulfonamido)-N-(5-(2-(3-fluorophenyl)pyrrolidin-1-yl)pyrazolo[1,5-a]pyrimidin-3-yl)benzamide] | 45.5 nM
O=C(Nc1ccc(F)cc1)Nc1cnn2ccc(N3CCC[C@@H]3c3cc(F)ccc3F)nc12 [Example 18, (R)-1-(5-(2-(2,5-difluorophenyl)pyrrolidin-1-yl)pyrazolo[1,5-a]pyrimidin-3-yl)-3-(4-fluorophenyl)urea] | 4.6 nM
COc1cccc(C(=O)Nc2cnn3ccc(N4CCC[C@@H]4c4cccc(F)c4)nc23)n1 [Example 75, (R)—N-(5-(2-(3-fluorophenyl)pyrrolidin-1-yl)pyrazolo[1,5-a]pyrimidin-3-yl)-6-methoxypicolinamide] | 7.4 nM
O=C(Nc1cnn2ccc(N3CCC[C@@H]3c3cc(F)ccc3Cl)nc12)N1CCC(O)CC1 [Example 42, (R)—N-(5-(2-(2-chloro-5-fluorophenyl)pyrrolidin-1-yl)pyrazolo[1,5-a]pyrimidin-3-yl)-4-hydroxypiperidine-1-carboxamide] | 28.3 nM
O=C(Nc1cnn2ccc(N3CCC[C@@H]3c3cc(F)ccc3F)nc12)c1ccc(Cl)cn1 [Example 61, (R)-5-chloro-N-(5-(2-(2,5-difluorophenyl)pyrrolidin-1-yl)pyrazolo[1,5-a]pyrimidin-3-yl)picolinamide] | 4 nM
O=C(Nc1ccc(Cl)cc1)Nc1cnn2ccc(N3CCC[C@@H]3c3cc(F)ccc3F)nc12 [Example 19, (R)-1-(4-chlorophenyl)-3-(5-(2-(2,5-difluorophenyl)pyrrolidin-1-yl)pyrazolo[1,5-a]pyrimidin-3-yl)urea] | 10.1 nM
CC(C)(C)OC(=O)N1CCC(C)(C(=O)Nc2cnn3ccc(N4CCC[C@@H]4c4cc(F)ccc4Cl)nc23)CC1 [Example 48, (R)-tert-butyl 4-(5-(2-(2-chloro-5-fluorophenyl)pyrrolidin-1-yl)pyrazolo[1,5-a]pyrimidin-3-ylcarbamoyl)-4-methylpiperidine-1-carboxylate] | 15.3 nM
O=C(Nc1cnn2ccc(N3CCC[C@@H]3c3cccc(F)c3)nc12)N1CC(O)C1 [Example 32, (R)—N-(5-(2-(3-fluorophenyl)pyrrolidin-1-yl)pyrazolo[1,5-a]pyrimidin-3-yl)-3-hydroxyazetidine-1-carboxamide] | 116 nM
O=C(Nc1cnn2ccc(N3CCC[C@@H]3c3cc(F)ccc3C(F)F)nc12)N1CCC[C@@H](O)C1 [Example 39, (R)—N-(5-((R)-2-(2-(difluoromethyl)-5-fluorophenyl)pyrrolidin-1-yl)pyrazolo[1,5-a]pyrimidin-3-yl)-3-hydroxypiperidine-1-carboxamide] | 25.7 nM
Cc1cccnc1C(=O)Nc1cnn2ccc(N3CCC[C@@H]3c3cc(F)ccc3F)nc12 [Example 63, (R)—N-(5-(2-(2,5-difluorophenyl)pyrrolidin-1-yl)pyrazolo[1,5-a]pyrimidin-3-yl)-3-methylpicolinamide] | 1.7 nM
O=C(Nc1cnn2ccc(N3CCC[C@@H]3c3cccc(F)c3)nc12)c1cccnc1 [Example 76, (R)—N-(5-(2-(3-fluorophenyl)pyrrolidin-1-yl)pyrazolo[1,5-a]pyrimidin-3-yl)nicotinamide] | 53.3 nM
O=C(Nc1cnn2ccc(N3CCC[C@@H]3c3cncc(F)c3)nc12)N1CC[C@@H](O)C1 [Example 89, (R)—N-(5-((R)-2-(5-fluoropyridin-3-yl)pyrrolidin-1-yl)pyrazolo[1,5-a]pyrimidin-3-yl)-3-hydroxypyrrolidine-1-carboxamide] | 896 nM
C[C@H]1CN(C(=O)Nc2cnn3ccc(N4CCC[C@@H]4c4cc(F)ccc4F)nc23)CCN1C(=O)OC(C)(C)C [Example 30, (S)-tert-butyl 4-(5-((R)-2-(2,5-difluorophenyl)pyrrolidin-1-yl)pyrazolo[1,5-a]pyrimidin-3-ylcarbamoyl)-2-methylpiperazine-1-carboxylate] | 154 nM
O=C(Nc1cnn2ccc(N3CCC[C@@H]3c3cc(F)ccc3C(F)(F)F)nc12)N1CC[C@H](O)C1 [Example 84, (S)—N-(5-((R)-2-(5-fluoro-2-(trifluoromethyl)phenyl)pyrrolidin-1-yl)pyrazolo[1,5-a]pyrimidin-3-yl)-3-hydroxypyrrolidine-1-carboxamide] | 3.2 nM
O=C(Nc1cnn2ccc(N3CCC[C@@H]3c3cc(F)cc(Cl)c3)nc12)N1CC(O)C1 [Example 11, (R)—N-(5-(2-(3-chloro-5-fluorophenyl)pyrrolidin-1-yl)pyrazolo[1,5-a]pyrimidin-3-yl)-3-hydroxyazetidine-1-carboxamide] | 171 nM

The remaining lines, values ahead:

IC50 | SMILES
42.5 nM | O=C(Nc1cnn2ccc(N3CCC[C@@H]3c3cc(F)ccc3F)nc12)[C@H]1CC[C@H](O)C1 [Example 95, (1S,3S)—N-(5-((R)-2-(2,5-difluorophenyl)pyrrolidin-1-yl)pyrazolo[1,5-a]pyrimidin-3-yl)-3-hydroxycyclopentanecarboxamide]
19.7 nM | CC1(O)CN(C(=O)Nc2cnn3ccc(N4CCC[C@@H]4c4cc(F)ccc4F)nc23)C1 [Example 17, (R)—N-(5-(2-(2,5-difluorophenyl)pyrrolidin-1-yl)pyrazolo[1,5-a]pyrimidin-3-yl)-3-hydroxy-3-methylazetidine-1-carboxamide]
13.7 nM | O=C(Nc1cnn2ccc(N3CCC[C@@H]3c3cc(F)ccc3Cl)nc12)N1CC(O)C1 [Example 8, (R)—N-(5-(2-(2-chloro-5-fluorophenyl)pyrrolidin-1-yl)pyrazolo[1,5-a]pyrimidin-3-yl)-3-hydroxyazetidine-1-carboxamide]
11.5 nM | CC1(O)CN(C(=O)Nc2cnn3ccc(N4CCC[C@@H]4c4cc(F)ccc4Cl)nc23)C1 [Example 22, (R)—N-(5-(2-(2-chloro-5-fluorophenyl)pyrrolidin-1-yl)pyrazolo[1,5-a]pyrimidin-3-yl)-3-hydroxy-3-methylazetidine-1-carboxamide]
15.8 nM | CN(C)C(=O)Nc1cnn2ccc(N3CCC[C@@H]3c3cc(F)ccc3F)nc12 [Example 2, (R)-3-(5-(2-(2,5-difluorophenyl)pyrrolidin-1-yl)pyrazolo[1,5-a]pyrimidin-3-yl)-1,1-dimethylurea]
107 nM | O=C(Nc1cnn2ccc(N3CCC[C@@H]3c3cc(F)ccc3F)nc12)N1C[C@@H]2C[C@H]1CO2 [Example 92, (1S,4S)—N-(5-((R)-2-(2,5-difluorophenyl)pyrrolidin-1-yl)pyrazolo[1,5-a]pyrimidin-3-yl)-2-oxa-5-azabicyclo[2.2.1]heptane-5-carboxamide]
8.7 nM | O=C(Nc1cnn2ccc(N3CCC[C@@H]3c3cc(F)ccc3C(F)F)nc12)N1CC[C@H](O)C1 [Example 37, (S)—N-(5-((R)-2-(2-(difluoromethyl)-5-fluorophenyl)pyrrolidin-1-yl)pyrazolo[1,5-a]pyrimidin-3-yl)-3-hydroxypyrrolidine-1-carboxamide]
8 nM | O=C(Nc1cnn2ccc(N3CCC[C@@H]3c3cc(F)ccc3Cl)nc12)N1CC[C@H](O)C1 [Example 81, (S)—N-(5-((R)-2-(2-chloro-5-fluorophenyl)pyrrolidin-1-yl)pyrazolo[1,5-a]pyrimidin-3-yl)-3-hydroxypyrrolidine-1-carboxamide]
4.2 nM | N#CC1(C(=O)Nc2cnn3ccc(N4CCC[C@@H]4c4cc(F)ccc4F)nc23)CC1 [Example 52, (R)-1-cyano-N-(5-(2-(2,5-difluorophenyl)pyrrolidin-1-yl)pyrazolo[1,5-a]pyrimidin-3-yl)cyclopropanecarboxamide]
16.5 nM | O=C(Nc1cnn2ccc(N3CCC[C@@H]3c3cc(F)ccc3F)nc12)C1(O)CC1 [Example 65, (R)—N-(5-(2-(2,5-difluorophenyl)pyrrolidin-1-yl)pyrazolo[1,5-a]pyrimidin-3-yl)-1-hydroxycyclopropanecarboxamide]
98.2 nM | O=C(O)C1(C(=O)Nc2cnn3ccc(N4CCC[C@@H]4c4cc(F)ccc4F)nc23)CC1 [Example 34, (R)-1-(5-(2-(2,5-difluorophenyl)pyrrolidin-1-yl)pyrazolo[1,5-a]pyrimidin-3-ylcarbamoyl)cyclopropanecarboxylic acid]
